Data on twelve compounds can be found in US10647679B2, “N-methyl-D-aspartate receptor (NMDAR) potentiators, pharmaceutical compositions, and uses related thereto” (Emory University, priority 2015, dated 2020).

Molecules are shown by their SMILES. Where two headings read alike, the source gives them in different places.

Holding throughout (format): cell-based
In test [1] the target is T1, recombinant rat GluN1/GluN2C (Rattus norvegicus, UniProt P35439+Q00961).
T1 construct: expressed in transfected cells; host or cells: Xenopus laevis oocytes (Ecocyte) injected with in vitro transcribed cRNA
T1 sequence (Q00961 20-1237, other chains not shown): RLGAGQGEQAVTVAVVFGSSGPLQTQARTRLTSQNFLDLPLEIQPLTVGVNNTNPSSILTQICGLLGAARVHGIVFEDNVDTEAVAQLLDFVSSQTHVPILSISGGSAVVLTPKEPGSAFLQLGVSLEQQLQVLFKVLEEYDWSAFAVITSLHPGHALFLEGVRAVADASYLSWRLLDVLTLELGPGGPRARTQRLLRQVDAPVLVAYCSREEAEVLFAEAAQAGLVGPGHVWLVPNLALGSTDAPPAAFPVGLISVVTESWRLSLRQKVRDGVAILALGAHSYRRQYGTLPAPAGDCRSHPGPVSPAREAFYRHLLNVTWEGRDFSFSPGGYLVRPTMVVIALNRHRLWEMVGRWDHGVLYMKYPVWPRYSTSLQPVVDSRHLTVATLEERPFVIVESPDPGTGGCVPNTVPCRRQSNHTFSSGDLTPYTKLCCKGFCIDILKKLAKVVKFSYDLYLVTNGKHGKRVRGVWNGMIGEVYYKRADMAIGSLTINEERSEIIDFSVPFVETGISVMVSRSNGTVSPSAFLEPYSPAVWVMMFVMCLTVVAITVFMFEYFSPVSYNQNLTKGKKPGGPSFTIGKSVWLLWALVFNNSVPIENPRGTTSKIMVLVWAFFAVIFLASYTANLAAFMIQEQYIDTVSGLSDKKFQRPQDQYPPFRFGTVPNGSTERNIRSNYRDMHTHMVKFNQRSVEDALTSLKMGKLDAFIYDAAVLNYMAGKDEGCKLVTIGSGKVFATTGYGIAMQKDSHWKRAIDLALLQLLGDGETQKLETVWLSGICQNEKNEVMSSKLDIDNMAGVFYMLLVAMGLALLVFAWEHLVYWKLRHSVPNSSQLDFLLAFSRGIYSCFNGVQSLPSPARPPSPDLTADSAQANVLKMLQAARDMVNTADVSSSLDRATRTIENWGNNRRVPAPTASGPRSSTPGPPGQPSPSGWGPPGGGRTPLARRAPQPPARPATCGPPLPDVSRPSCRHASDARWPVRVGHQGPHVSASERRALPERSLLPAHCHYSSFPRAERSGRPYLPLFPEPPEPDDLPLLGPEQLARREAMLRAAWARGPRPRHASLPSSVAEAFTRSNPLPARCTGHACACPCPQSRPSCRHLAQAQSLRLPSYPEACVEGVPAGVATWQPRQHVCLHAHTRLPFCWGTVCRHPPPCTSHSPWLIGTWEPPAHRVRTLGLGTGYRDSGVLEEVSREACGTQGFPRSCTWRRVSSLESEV
Kind of test: Two-electrode voltage-clamp (TEVC) recordings in Xenopus laevis oocytes, GluN1/GluN2C. The procedure:
(§1) Data are from between 3-26 oocytes from 2-5 frogs for each compound and receptor tested.
(§2) Two-electrode voltage-clamp recordings were performed in Xenopus laevis oocytes (Ecocyte) expressing recombinant rat GluN1/GluN2A, GluN1/GluN2B, GluN1/GluN2C, GluN1/GluN2D. cRNA was transcribed in vitro (Ambion), diluted with nuclease free water, and injected at a ratio of 1:2 GluN1:GluN2 (5-10 ng total cRNA). The oocytes were kept in Barth's solution comprised of (in mM) 88 NaCl, 5 Tris-HCl, 2.4 NaHCO3, 1 KCl, 0.84 MgSO4, 0.41 CaCl2, and 0.33 Ca(NO3)2 at pH 7.4 at 15-17° C. for two to five days before experiments. Oocytes were placed into a perfusion chamber and continually washed with recording solution containing (in mM) 90 NaCl, 1.0 KCl, 0.5 BaCl2, 0.005 EDTA, and 10 HEPES at pH 7.4 (23° C.). Voltage clamp recordings were conducted at a holding potential of −40 mV. All compounds were made as 20 mM stock solutions in DMSO and dissolved to reach the final concentration in recording solution. Final DMSO content was 0.05-0.5% (vol/vol). Some oocytes expressing GluN1/GluN2A were pretreated with […] BAPTA-AM for 10 minutes or injected with […] of 2 mM K-BAPTA to prevent gradual run-up of the current response.
On the technique in general: Two-electrode voltage clamp holds a large cell at a set potential and records current.

In test [2] the target is T2, recombinant rat GluN1/GluN2C (Rattus norvegicus, UniProt Q00961).
T2 construct: expressed in transfected cells; host or cells: Xenopus laevis oocytes (Ecocyte) injected with in vitro transcribed cRNA
T2 sequence (Q00961 20-1237, other chains not shown): as above
Described as above. The conditions noted are these: for I30 μM/Icontrol (mean ± SEM, %) GluN2C: 30 μM compound, Tables 5-7. The procedure:
as §1, §2

Test [3] concerns the target T3, recombinant rat GluN1/GluN2D (Rattus norvegicus, UniProt Q62645).
T3 construct: expressed in transfected cells; host or cells: Xenopus laevis oocytes (Ecocyte) injected with in vitro transcribed cRNA
Kind of test: Two-electrode voltage-clamp (TEVC) recordings in Xenopus laevis oocytes, GluN1/GluN2D. The conditions noted are these: for I30 μM/Icontrol (mean ± SEM, %) GluN2D: 30 μM compound, Tables 5-7. On the procedure: as §1, §2

In test [4] the target is T4, recombinant rat GluN1/GluN2B (Rattus norvegicus, UniProt P35439+Q00960).
T4 construct: expressed in transfected cells; host or cells: Xenopus laevis oocytes (Ecocyte) injected with in vitro transcribed cRNA
T4 sequence (Q00960 27-1482, other chains not shown): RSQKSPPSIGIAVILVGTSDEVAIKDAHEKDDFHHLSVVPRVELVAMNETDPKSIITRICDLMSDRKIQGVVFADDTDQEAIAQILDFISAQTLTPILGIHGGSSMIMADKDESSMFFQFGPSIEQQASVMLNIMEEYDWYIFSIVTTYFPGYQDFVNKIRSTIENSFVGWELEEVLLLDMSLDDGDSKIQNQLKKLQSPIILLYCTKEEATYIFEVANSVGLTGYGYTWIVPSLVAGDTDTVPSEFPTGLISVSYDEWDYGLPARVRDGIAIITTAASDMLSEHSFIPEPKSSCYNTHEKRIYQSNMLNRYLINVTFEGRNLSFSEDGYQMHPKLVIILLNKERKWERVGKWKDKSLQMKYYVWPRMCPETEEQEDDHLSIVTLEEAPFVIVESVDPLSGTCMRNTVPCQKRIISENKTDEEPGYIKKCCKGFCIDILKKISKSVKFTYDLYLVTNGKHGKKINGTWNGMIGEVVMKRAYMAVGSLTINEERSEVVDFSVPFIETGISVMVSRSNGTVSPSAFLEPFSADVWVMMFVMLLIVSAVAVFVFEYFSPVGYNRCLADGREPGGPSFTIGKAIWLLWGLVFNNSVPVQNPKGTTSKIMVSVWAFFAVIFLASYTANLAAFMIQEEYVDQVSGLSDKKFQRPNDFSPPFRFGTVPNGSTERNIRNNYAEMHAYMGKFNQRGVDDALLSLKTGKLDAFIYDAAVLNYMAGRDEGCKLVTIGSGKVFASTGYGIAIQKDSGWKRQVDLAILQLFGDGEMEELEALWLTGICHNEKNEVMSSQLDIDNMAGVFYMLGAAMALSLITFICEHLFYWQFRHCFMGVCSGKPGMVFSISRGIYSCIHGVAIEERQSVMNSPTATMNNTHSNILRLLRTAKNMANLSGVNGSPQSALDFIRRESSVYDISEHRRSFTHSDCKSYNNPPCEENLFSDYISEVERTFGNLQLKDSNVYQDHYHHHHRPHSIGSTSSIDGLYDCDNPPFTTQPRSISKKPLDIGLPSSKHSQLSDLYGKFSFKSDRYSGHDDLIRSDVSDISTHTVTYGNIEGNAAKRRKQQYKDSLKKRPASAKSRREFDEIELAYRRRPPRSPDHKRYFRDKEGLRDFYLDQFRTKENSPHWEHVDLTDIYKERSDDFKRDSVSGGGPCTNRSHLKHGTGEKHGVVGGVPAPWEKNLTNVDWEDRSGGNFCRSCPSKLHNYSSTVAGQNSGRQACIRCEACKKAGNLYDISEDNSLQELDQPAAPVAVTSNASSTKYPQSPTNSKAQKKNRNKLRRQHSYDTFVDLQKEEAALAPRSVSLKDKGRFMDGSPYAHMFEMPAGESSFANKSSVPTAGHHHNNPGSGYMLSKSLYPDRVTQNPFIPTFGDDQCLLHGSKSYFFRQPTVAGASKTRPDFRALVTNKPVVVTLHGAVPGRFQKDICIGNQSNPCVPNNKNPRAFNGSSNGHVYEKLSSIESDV
Kind of test: Two-electrode voltage-clamp (TEVC) recordings in Xenopus laevis oocytes, GluN1/GluN2B. The procedure: as §1, §2

The target of test [5] is T5, recombinant rat GluN1/GluN2B (Rattus norvegicus, UniProt Q00960).
T5 construct: expressed in transfected cells; host or cells: Xenopus laevis oocytes (Ecocyte) injected with in vitro transcribed cRNA
The description is as above. As to conditions: for I30 μM/Icontrol (mean ± SEM, %) GluN2B: 30 μM compound, Tables 5-7. On the procedure: as §1, §2

The target in test [6] is T6, recombinant rat GluN1/GluN2D (Rattus norvegicus, UniProt P35439+Q62645).
T6 construct: expressed in transfected cells; host or cells: Xenopus laevis oocytes (Ecocyte) injected with in vitro transcribed cRNA
T6 sequence (Q62645 28-1323, other chains not shown): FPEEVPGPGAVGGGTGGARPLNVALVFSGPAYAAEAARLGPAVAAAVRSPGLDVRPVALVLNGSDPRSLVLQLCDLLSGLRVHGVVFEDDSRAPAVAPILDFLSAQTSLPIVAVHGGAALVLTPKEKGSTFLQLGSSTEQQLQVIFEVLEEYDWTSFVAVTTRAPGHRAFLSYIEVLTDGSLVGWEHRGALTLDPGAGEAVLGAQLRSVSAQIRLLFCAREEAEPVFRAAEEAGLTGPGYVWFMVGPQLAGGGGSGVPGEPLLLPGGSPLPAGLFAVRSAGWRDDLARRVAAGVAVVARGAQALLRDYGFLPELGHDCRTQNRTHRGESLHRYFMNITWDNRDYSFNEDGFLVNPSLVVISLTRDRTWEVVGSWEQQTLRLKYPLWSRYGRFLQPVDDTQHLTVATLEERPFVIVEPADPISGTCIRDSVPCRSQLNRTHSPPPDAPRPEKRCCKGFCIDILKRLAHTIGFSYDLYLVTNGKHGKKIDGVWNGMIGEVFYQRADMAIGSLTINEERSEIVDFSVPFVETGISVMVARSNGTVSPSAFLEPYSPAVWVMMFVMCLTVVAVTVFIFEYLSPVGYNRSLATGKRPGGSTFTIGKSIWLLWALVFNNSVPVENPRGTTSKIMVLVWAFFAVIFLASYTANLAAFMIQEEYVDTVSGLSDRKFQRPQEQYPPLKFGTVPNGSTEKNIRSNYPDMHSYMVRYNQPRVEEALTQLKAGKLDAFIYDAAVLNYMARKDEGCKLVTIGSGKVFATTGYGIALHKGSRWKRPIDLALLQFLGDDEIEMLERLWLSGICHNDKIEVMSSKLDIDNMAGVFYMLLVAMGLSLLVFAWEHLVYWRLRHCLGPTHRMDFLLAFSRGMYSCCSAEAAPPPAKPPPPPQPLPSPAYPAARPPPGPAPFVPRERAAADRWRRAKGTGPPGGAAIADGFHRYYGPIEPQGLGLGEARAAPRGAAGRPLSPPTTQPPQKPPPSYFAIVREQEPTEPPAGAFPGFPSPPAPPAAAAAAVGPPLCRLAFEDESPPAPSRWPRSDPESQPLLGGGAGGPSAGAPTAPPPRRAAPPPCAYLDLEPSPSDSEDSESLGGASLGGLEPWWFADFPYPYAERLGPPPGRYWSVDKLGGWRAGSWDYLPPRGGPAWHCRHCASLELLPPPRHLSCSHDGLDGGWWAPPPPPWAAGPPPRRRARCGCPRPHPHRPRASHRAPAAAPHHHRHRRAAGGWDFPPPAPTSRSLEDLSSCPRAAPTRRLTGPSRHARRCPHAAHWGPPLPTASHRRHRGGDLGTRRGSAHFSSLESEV
Put plainly: Two-electrode voltage-clamp (TEVC) recordings in Xenopus laevis oocytes, GluN1/GluN2D. The conditions noted are these: for EC50: untitled tables after drawing 25 and drawing 36, read-out: EC50 (μM) GluN2D. On the procedure: as §1, §2

The mark [7] stands for this setting: fitted when potentiation at 30 μM exceeded 120%, Tables 3, 5-7, read-out: EC50 (max.) (μM %) GluN2C: fitted EC50.
Setting [8] is: fitted when potentiation at 30 μM exceeded 120%, Tables 3, 5-7, read-out: EC50 (max.) (μM %) GluN2B: fitted EC50.
Setting [9] is: percentage of the initial glutamate (100 μM) and glycine (30 μM) current, read-out: EC50 (max.) (μM %) GluN2B: fitted maximum response.
Setting [10] is: maximum potentiation, response without modulator = 100%.
The mark [11] stands for this setting: percentage of the initial glutamate (100 μM) and glycine (30 μM) current.
[12] abbreviates: Tables 11-13, read-out: EC50 & Max Effect: 2C Max (%).
Setting [13] is: Tables 11-13, read-out: EC50 & Max Effect: 2D Max (%).
Setting [14] is: maximum potentiation, response without modulator = 100%, read-out: GluN2C EC50 (μM)/Max %: Max %.
The mark [15] stands for this setting: maximum potentiation, response without modulator = 100%, read-out: GluN2D EC50 (μM)/Max %: Max %.
[16] abbreviates: maximum potentiation, response without modulator = 100%, read-out: GluN2B EC50 (μM)/Max %: Max %.
Setting [17] is: untitled tables after drawing 25 and drawing 36, read-out: EC50 (μM) GluN2C.

T3 sequence (Q62645 28-1323, other chains not shown): as above

The term EC50 denotes the midpoint of the concentration-response curve. `CCOc1ccc(OC[C@@H]2c3ccc(OC(C)C)cc3CCN2C(=O)c2cccc(C(F)(F)F)c2)cc1` [(S)-(−)-1180-92]: the results for the EC50 in test [1] (setting [7]) and in test [4] (setting [8]) were 1.2 µM and 1.9 µM, respectively. Moreover, the Emax in test [1] (percentage of the initial glutamate (100 μM) and glycine (30 μM) current, read-out: EC50 (max.) (μM %) GluN2C: fitted maximum response) came out at 141%; in test [4] (setting [9]), 210%. The “I30 μM/Icontrol (mean ± SEM, %) GluN2C” value in test [2] turned out to be 132%. For the same compound, the “I30 μM/Icontrol (mean ± SEM, %) GluN2D” value in test [3] came to 116%. Moreover, the “I30 μM/Icontrol (mean ± SEM, %) GluN2B” value in test [5] is 207%.
With `CCOc1ccc(OCC2c3ccc(OC(C)C)cc3CCN2C(=S)c2cccc(F)c2)cc1` (racemic) [1180-154], in test [2], the “I30 μM/Icontrol (mean ± SEM, %) GluN2C” value was 166%. For the same compound, the EC50 in test [2] (setting [7]) was 1.4 µM; in test [3] (fitted when potentiation at 30 μM exceeded 120%, Tables 3, 5-7, read-out: EC50 (max.) (μM %) GluN2D: fitted EC50), 1.2 µM; in test [5] (setting [8]), 0.7 µM. The “GluN2C EC50 (μM)/Max %: Max %” value in test [2] (setting [10]) came out at 191%. Moreover, the “EC50 (max.) (μM %) GluN2C: fitted maximum response” value in test [2] (setting [11]) was “(145%)”. For the same compound, the “I30 μM/Icontrol (mean ± SEM, %) GluN2D” value in test [3] was found to be 154%. Also, in test [3] (setting [10]), the “GluN2D EC50 (μM)/Max %: Max %” value is listed as 159%. Moreover, in test [3] (setting [11]), the “EC50 (max.) (μM %) GluN2D: fitted maximum response” value is recorded as “(153%)”. The “I30 μM/Icontrol (mean ± SEM, %) GluN2B” value in test [5] worked out at 184%. In test [5] (setting [10]), the “GluN2B EC50 (μM)/Max %: Max %” value is listed as 200%. The “EC50 (max.) (μM %) GluN2B: fitted maximum response” value in test [5] (setting [11]) is on record as “(190%)”.
Consider `COc1ccc(OCC2c3cc(C)c(C)cc3CCN2C(=O)c2cccc(Br)c2)cc1` (centres unmarked) [drawing 33 R1=Br R2=H R3=H R4=Me R5=Me], for which the Emax in test [1] (setting [12]) came to 197%; in test [6] (setting [13]), 211%.
`COc1ccc(OCC2c3ccc(N(C)C)cc3CCN2C(=S)c2cccc(Cl)c2)cc1` (centres unmarked) [1180-167]: the results for the Emax in test [1] (setting [14]) and in test [6] (setting [15]) were 134% and 127%, respectively.
Take `COc1ccc(OCC2c3ccc(N(C)C)cc3CCN2C(=O)c2cccc(Cl)c2)cc1` (centres unmarked) [1180-104]: the values for the Emax in test [1] (setting [14]), in test [6] (setting [15]) and in test [4] (setting [16]) were 315%, 349% and 132%, respectively.
With `CCOc1ccc(OCC2c3ccc(OC(C)C)cc3CCN2C(=O)c2cccc(F)c2)cc1` (centres unmarked) [1180-87], in test [2], the “I30 μM/Icontrol (mean ± SEM, %) GluN2C” value stood at 103%. Besides, the EC50 in test [4] (setting [8]) is 2.8 µM. For the same compound, the Emax in test [4] (setting [16]) and in test [4] (setting [9]) was 152% in each case. For the same compound, the “I30 μM/Icontrol (mean ± SEM, %) GluN2B” value in test [5] stood at 151%.
Consider `COc1ccc(OCC2c3ccc(OC)cc3CCN2C(=O)CCCC(F)(F)F)cc1` (centres unmarked) [1180-252], for which the EC50 turned out to be 11 µM in test [1] (setting [17]) and 14 µM in test [6]. The “GluN2B response % at 30 µM” value in test [5] was 96% at 30.
Take `CCOc1ccc(OCC2c3ccc(OC(C)C)cc3CCN2C(=S)c2cccc(Cl)c2)cc1` (centres unmarked) [1180-149]: the Emax in test [1] (setting [14]) is 179%; in test [6] (setting [15]), 145%; in test [4] (setting [16]) it was 184%.
In the case of `CCOc1ccc(OCC2c3ccc(OC(C)C)cc3CCN2C(=O)C=C(C)C(F)(F)F)cc1` (centres unmarked) [1180-263], in test [2] (at 30 µM), the “GluN2C response % at 30 µM” value was found to be 165% at 30. The “GluN2D response % at 30 µM” value in test [3] (at 30 µM) is 146% at 30. The “GluN2B response % at 30 µM” value in test [5] came out at 145% at 30.
In the case of `CC(C)Oc1ccc(OCC2c3ccc(OC(C)C)cc3CCN2C(=S)c2cccc(Cl)c2)cc1` (centres unmarked) [1180-265], the EC50 was 0.3 µM in test [1] (setting [17]); 0.4 µM in test [6]; 0.6 µM in test [4] (untitled tables after drawing 25 and drawing 36, read-out: EC50 (μM) GluN2B).
On to `COc1ccc(OCC2c3ccc(N(C)C)cc3CCN2C(=O)c2cccc(Br)c2)cc1` (centres unmarked) [drawing 33 R1=Br R2=H R3=H R4=NMe2 R5=H], for which the Emax stood at 293% in test [1] (setting [12]) and 327% in test [6] (setting [13]).
With `CCOc1ccc(OCC2c3ccc(OC(C)C)cc3CCN2C(=S)Nc2cccc(Cl)c2)cc1` (centres unmarked) [1180-210], the Emax is 173% in test [1] (setting [14]) and 174% in test [6] (setting [15]).
